Test results from patent US20020111274A1, “1-alkyl-3-[1-(substituted phenyl) benzotriazol-6-yl] uracils” (BASF Aktiengesellschaft, priority 2000, published 2002).

Key:
Design in all cases: scale not given here
ABUTH Velvetleaf [1] = assay: Postemergence herbicidal evaluation, ABUTH; type: in vivo, Abutilon theophrasti, Medic.; conditions: postemergence spray, rated about two-three weeks after treatment
Summary of the method: (§1)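 Plants are raised for roughly two weeks, then treated postemergence with compound dispersed in acetone/water (80/20) plus 1.0% seed oil adjuvant, at rates of about 0.006 kg to 0.400 kg per hectare. After greenhouse care, damage is scored two to three weeks later.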

AMBEL Ragweed, Common [2] = assay: Postemergence herbicidal evaluation, AMBEL; type: in vivo, Ambrosia artemisifolia, L.; conditions: postemergence spray, rated about two-three weeks after treatment
Summary of the method: as §1

CASOB Sicklepod [3] = assay: Postemergence herbicidal evaluation, CASOB; type: in vivo, Cassia obtusifolia, L.; conditions: postemergence spray, rated about two-three weeks after treatment
Summary of the method: as §1

[4] = system: CHEAL Lambsquarters, Common; assay: Postemergence herbicidal evaluation, CHEAL; type: in vivo, Chenopodium album, L.; conditions: postemergence spray, rated about two-three weeks after treatment
Summary of the method: as §1

ECHOG Barnyardgrass [5] = assay: Postemergence herbicidal evaluation, ECHOG; type: in vivo, Echinochloa crus-galli, (L.) Beau; conditions: postemergence spray, rated about two-three weeks after treatment
Summary of the method: as §1

GALAP Galium [6] = assay: Postemergence herbicidal evaluation, GALAP; type: in vivo, Galium aparine; conditions: postemergence spray, rated about two-three weeks after treatment
Summary of the method: as §1

[7] = system: IPOHE Morningglory, Ivyleaf; assay: Postemergence herbicidal evaluation, IPOHE; type: in vivo, Ipomoea hederacea, (L.) Jacq.; conditions: postemergence spray, rated about two-three weeks after treatment
Summary of the method: as §1

SETVI Foxtail, Green [8] = assay: Postemergence herbicidal evaluation, SETVI; type: in vivo, Setaria viridis, (L.) Beau; conditions: postemergence spray, rated about two-three weeks after treatment
Summary of the method: as §1

GLXMAW Soybean, Williams [9] = assay: Postemergence herbicidal evaluation, GLXMAW; type: in vivo, Glycine max, (L.) Merr. cv Williams; conditions: postemergence spray, rated about two-three weeks after treatment
Summary of the method: as §1

[10] = system: TRZAWR Wheat, Winter, cv Riband; assay: Postemergence herbicidal evaluation, TRZAWR; type: in vivo, Triticum aestivum; conditions: postemergence spray, rated about two-three weeks after treatment
Summary of the method: as §1

ORYSAT Rice, Tebonnet [11] = assay: Postemergence herbicidal evaluation, ORYSAT; type: in vivo, Oryza sativa, (L.); conditions: postemergence spray, rated about two-three weeks after treatment
Summary of the method: as §1

ZEAMX Corn, Field [12] = assay: Postemergence herbicidal evaluation, ZEAMX; type: in vivo, Zea mays, L. (Sammel-Bezeichnung); conditions: postemergence spray, rated about two-three weeks after treatment
Summary of the method: as §1

ABUTH Velvetleaf [13] = assay: Preemergence herbicidal evaluation, ABUTH; type: in vivo, Abutilon theophrasti, Medic.; conditions: preemergence
Summary of the method: (§2)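 Visual ratings were taken four to five weeks after application. Before that, cups sown with seed in potting soil received a spray of compound dissolved in aqueous acetone, equivalent to about 0.013 to 0.800 kg/ha, and stood on greenhouse benches under conventional care.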

AMBEL Ragweed, Common [14] = assay: Preemergence herbicidal evaluation, AMBEL; type: in vivo, Ambrosia artemisifolia, L.; conditions: preemergence
Summary of the method: as §2

CASOB Sicklepod [15] = assay: Preemergence herbicidal evaluation, CASOB; type: in vivo, Cassia obtusifolia, L.; conditions: preemergence
Summary of the method: as §2

[16] = system: CHEAL Lambsquarters, Common; assay: Preemergence herbicidal evaluation, CHEAL; type: in vivo, Chenopodium album, L.; conditions: preemergence
Summary of the method: as §2

ECHOG Barnyardgrass [17] = assay: Preemergence herbicidal evaluation, ECHOG; type: in vivo, Echinochloa crus-galli, (L.) Beau; conditions: preemergence
Summary of the method: as §2

GALAP Galium [18] = assay: Preemergence herbicidal evaluation, GALAP; type: in vivo, Galium aparine; conditions: preemergence
Summary of the method: as §2

[19] = system: IPOHE Morningglory, Ivyleaf; assay: Preemergence herbicidal evaluation, IPOHE; type: in vivo, Ipomoea hederacea, (L.) Jacq.; conditions: preemergence
Summary of the method: as §2

SETVI Foxtail, Green [20] = assay: Preemergence herbicidal evaluation, SETVI; type: in vivo, Setaria viridis, (L.) Beau; conditions: preemergence
Summary of the method: as §2

GLXMAW Soybean, Williams [21] = assay: Preemergence herbicidal evaluation, GLXMAW; type: in vivo, Glycine max, (L.) Merr. cv Williams; conditions: preemergence
Summary of the method: as §2

[22] = system: TRZAWR Wheat, Winter, cv Riband; assay: Preemergence herbicidal evaluation, TRZAWR; type: in vivo, Triticum aestivum; conditions: preemergence
Summary of the method: as §2

ORYSAT Rice, Tebonnet [23] = assay: Preemergence herbicidal evaluation, ORYSAT; type: in vivo, Oryza sativa, (L.); conditions: preemergence
Summary of the method: as §2

ZEAMX Corn, Field [24] = assay: Preemergence herbicidal evaluation, ZEAMX; type: in vivo, Zea mays, L. (Sammel-Bezeichnung); conditions: preemergence
Summary of the method: as §2

## CCc1ccc(-n2nnc3cc(F)c(-n4c(=O)cc(C(F)(F)F)n(C)c4=O)cc32)cc1COC [Example 28]
ABUTH Velvetleaf [1]; 0.008 kg/ha
  Postemergence herbicidal rating ABUTH: 9.0
ABUTH Velvetleaf [1]; 0.016 kg/ha
  Postemergence herbicidal rating ABUTH: 9.0
ABUTH Velvetleaf [1]; 0.032 kg/ha
  Postemergence herbicidal rating ABUTH: 9.0
ABUTH Velvetleaf [1]; 0.062 kg/ha
  Postemergence herbicidal rating ABUTH: 9.0
AMBEL Ragweed, Common [2]; 0.008 kg/ha
  Postemergence herbicidal rating AMBEL: 9.0
AMBEL Ragweed, Common [2]; 0.016 kg/ha
  Postemergence herbicidal rating AMBEL: 9.0
AMBEL Ragweed, Common [2]; 0.032 kg/ha
  Postemergence herbicidal rating AMBEL: 9.0
AMBEL Ragweed, Common [2]; 0.062 kg/ha
  Postemergence herbicidal rating AMBEL: 9.0
CASOB Sicklepod [3]; 0.008 kg/ha
  Postemergence herbicidal rating CASOB: 0.0
CASOB Sicklepod [3]; 0.016 kg/ha
  Postemergence herbicidal rating CASOB: 0.0
CASOB Sicklepod [3]; 0.032 kg/ha
  Postemergence herbicidal rating CASOB: 1.0
CASOB Sicklepod [3]; 0.062 kg/ha
  Postemergence herbicidal rating CASOB: 3.0
[4]; 0.008 kg/ha
  Postemergence herbicidal rating CHEAL: 2.0
[4]; 0.016 kg/ha
  Postemergence herbicidal rating CHEAL: 4.0
[4]; 0.032 kg/ha
  Postemergence herbicidal rating CHEAL: 7.0
[4]; 0.062 kg/ha
  Postemergence herbicidal rating CHEAL: 9.0
ECHOG Barnyardgrass [5]; 0.008 kg/ha
  Postemergence herbicidal rating ECHCG: 0.0
ECHOG Barnyardgrass [5]; 0.016 kg/ha
  Postemergence herbicidal rating ECHCG: 0.0
ECHOG Barnyardgrass [5]; 0.032 kg/ha
  Postemergence herbicidal rating ECHCG: 1.0
ECHOG Barnyardgrass [5]; 0.062 kg/ha
  Postemergence herbicidal rating ECHCG: 1.0
GALAP Galium [6]; 0.008 kg/ha
  Postemergence herbicidal rating GALAP: 4.0
GALAP Galium [6]; 0.016 kg/ha
  Postemergence herbicidal rating GALAP: 4.0
GALAP Galium [6]; 0.032 kg/ha
  Postemergence herbicidal rating GALAP: 6.0
GALAP Galium [6]; 0.062 kg/ha
  Postemergence herbicidal rating GALAP: 8.0
[7]; 0.008 kg/ha
  Postemergence herbicidal rating IPOHE: 9.0
[7]; 0.016 kg/ha
  Postemergence herbicidal rating IPOHE: 9.0
[7]; 0.032 kg/ha
  Postemergence herbicidal rating IPOHE: 9.0
[7]; 0.062 kg/ha
  Postemergence herbicidal rating IPOHE: 9.0
SETVI Foxtail, Green [8]; 0.008 kg/ha
  Postemergence herbicidal rating SETVI: 0.0
SETVI Foxtail, Green [8]; 0.016 kg/ha
  Postemergence herbicidal rating SETVI: 3.0
SETVI Foxtail, Green [8]; 0.032 kg/ha
  Postemergence herbicidal rating SETVI: 7.0
SETVI Foxtail, Green [8]; 0.062 kg/ha
  Postemergence herbicidal rating SETVI: 9.0
GLXMAW Soybean, Williams [9]; 0.008 kg/ha
  Postemergence herbicidal rating GLXMAW: 4.0
GLXMAW Soybean, Williams [9]; 0.016 kg/ha
  Postemergence herbicidal rating GLXMAW: 5.0
GLXMAW Soybean, Williams [9]; 0.032 kg/ha
  Postemergence herbicidal rating GLXMAW: 6.0
GLXMAW Soybean, Williams [9]; 0.062 kg/ha
  Postemergence herbicidal rating GLXMAW: 6.5
[10]; 0.008 kg/ha
  Postemergence herbicidal rating TRZAWR: 2.5
[10]; 0.016 kg/ha
  Postemergence herbicidal rating TRZAWR: 4.5
[10]; 0.032 kg/ha
  Postemergence herbicidal rating TRZAWR: 4.5
[10]; 0.062 kg/ha
  Postemergence herbicidal rating TRZAWR: 5.5
ORYSAT Rice, Tebonnet [11]; 0.008 kg/ha
  Postemergence herbicidal rating ORYSAT: 0.5
ORYSAT Rice, Tebonnet [11]; 0.016 kg/ha
  Postemergence herbicidal rating ORYSAT: 2.0
ORYSAT Rice, Tebonnet [11]; 0.032 kg/ha
  Postemergence herbicidal rating ORYSAT: 3.0
ORYSAT Rice, Tebonnet [11]; 0.062 kg/ha
  Postemergence herbicidal rating ORYSAT: 5.5
ZEAMX Corn, Field [12]; 0.008 kg/ha
  Postemergence herbicidal rating ZEAMX: 3.5
ZEAMX Corn, Field [12]; 0.016 kg/ha
  Postemergence herbicidal rating ZEAMX: 6.0
ZEAMX Corn, Field [12]; 0.032 kg/ha
  Postemergence herbicidal rating ZEAMX: 6.0
ZEAMX Corn, Field [12]; 0.062 kg/ha
  Postemergence herbicidal rating ZEAMX: 7.5
ABUTH Velvetleaf [13]; rate 0.032 kg/ha
  ABUTH herbicidal rating: 2.0
ABUTH Velvetleaf [13]; rate 0.062 kg/ha
  ABUTH herbicidal rating: 9.0
ABUTH Velvetleaf [13]; rate 0.125 kg/ha
  ABUTH herbicidal rating: 9.0
AMBEL Ragweed, Common [14]; rate 0.016 kg/ha
  AMBEL herbicidal rating: 0.0
AMBEL Ragweed, Common [14]; rate 0.032 kg/ha
  AMBEL herbicidal rating: 0.0
AMBEL Ragweed, Common [14]; rate 0.062 kg/ha
  AMBEL herbicidal rating: 1.0
AMBEL Ragweed, Common [14]; rate 0.125 kg/ha
  AMBEL herbicidal rating: 7.0
CASOB Sicklepod [15]; rate 0.016 kg/ha
  CASOB herbicidal rating: 0.0
CASOB Sicklepod [15]; rate 0.032 kg/ha
  CASOB herbicidal rating: 0.0
CASOB Sicklepod [15]; rate 0.062 kg/ha
  CASOB herbicidal rating: 0.0
[16]; rate 0.016 kg/ha
  CHEAL herbicidal rating: 3.0
[16]; rate 0.032 kg/ha
  CHEAL herbicidal rating: 9.0
[16]; rate 0.062 kg/ha
  CHEAL herbicidal rating: 9.0
[16]; rate 0.125 kg/ha
  CHEAL herbicidal rating: 9.0
ECHOG Barnyardgrass [17]; rate 0.016 kg/ha
  ECHCG herbicidal rating: 0.0
ECHOG Barnyardgrass [17]; rate 0.032 kg/ha
  ECHCG herbicidal rating: 0.0
ECHOG Barnyardgrass [17]; rate 0.062 kg/ha
  ECHCG herbicidal rating: 0.0
ECHOG Barnyardgrass [17]; rate 0.125 kg/ha
  ECHCG herbicidal rating: 7.0
GALAP Galium [18]; rate 0.016 kg/ha
  GALAP herbicidal rating: 0.0
GALAP Galium [18]; rate 0.032 kg/ha
  GALAP herbicidal rating: 0.0
GALAP Galium [18]; rate 0.062 kg/ha
  GALAP herbicidal rating: 0.0
GALAP Galium [18]; rate 0.125 kg/ha
  GALAP herbicidal rating: 9.0
[19]; rate 0.016 kg/ha
  IPOHE herbicidal rating: 0.0
[19]; rate 0.032 kg/ha
  IPOHE herbicidal rating: 0.0
[19]; rate 0.062 kg/ha
  IPOHE herbicidal rating: 1.0
[19]; rate 0.125 kg/ha
  IPOHE herbicidal rating: 1.0
SETVI Foxtail, Green [20]; rate 0.016 kg/ha
  SETVI herbicidal rating: 0.0
SETVI Foxtail, Green [20]; rate 0.032 kg/ha
  SETVI herbicidal rating: 2.0
SETVI Foxtail, Green [20]; rate 0.062 kg/ha
  SETVI herbicidal rating: 4.0
SETVI Foxtail, Green [20]; rate 0.125 kg/ha
  SETVI herbicidal rating: 9.0
GLXMAW Soybean, Williams [21]; rate 0.016 kg/ha
  GLXMAW herbicidal rating: 0.0
GLXMAW Soybean, Williams [21]; rate 0.032 kg/ha
  GLXMAW herbicidal rating: 0.0
GLXMAW Soybean, Williams [21]; rate 0.062 kg/ha
  GLXMAW herbicidal rating: 0.0
GLXMAW Soybean, Williams [21]; rate 0.125 kg/ha
  GLXMAW herbicidal rating: 0.0
[22]; rate 0.016 kg/ha
  TRZAWR herbicidal rating: 0.0
[22]; rate 0.032 kg/ha
  TRZAWR herbicidal rating: 0.0
[22]; rate 0.062 kg/ha
  TRZAWR herbicidal rating: 0.0
[22]; rate 0.125 kg/ha
  TRZAWR herbicidal rating: 0.0
ORYSAT Rice, Tebonnet [23]; rate 0.016 kg/ha
  ORYSAT herbicidal rating: 0.0
ORYSAT Rice, Tebonnet [23]; rate 0.032 kg/ha
  ORYSAT herbicidal rating: 0.0
ORYSAT Rice, Tebonnet [23]; rate 0.062 kg/ha
  ORYSAT herbicidal rating: 0.0
ORYSAT Rice, Tebonnet [23]; rate 0.125 kg/ha
  ORYSAT herbicidal rating: 0.0
ZEAMX Corn, Field [24]; rate 0.016 kg/ha
  ZEAMX herbicidal rating: 0.0
ZEAMX Corn, Field [24]; rate 0.032 kg/ha
  ZEAMX herbicidal rating: 3.0
ZEAMX Corn, Field [24]; rate 0.062 kg/ha
  ZEAMX herbicidal rating: 4.0
ZEAMX Corn, Field [24]; rate 0.125 kg/ha
  ZEAMX herbicidal rating: 5.0
